Columns and labels:
HIVIIIB [1] = assay: HIV-1 replication in MT2 cell line without human serum (RT activity in supernatant); assay type: cell-based; settings: MT2 cells, day 5 after infection, average if tested more than once, read-out: MT2 (HIVIIIB) IC50 range
Protocol: (§1) HIV-1 Replication in MT2 cell line with and without 30% human serum: The cells are infected at a Multiciplicity of Infection (MOI) of 0.5 for 3 h and then washed twice with complete media to remove residual virus. Cells are then resuspended at 0.5×10^6/ml in complete medium (RPMI, 10% FBS, 1% sodium pyruvate), and seeded into 96-well plates (6.25×10^4/well). The cells are cultured in the presence or absence of various concentrations of test compounds in serial dilutions for 3 days at 37° C. The test compounds are serially diluted in complete medium supplemented or not with 30% human serum. After 3 days, 100 μL of cultured medium with cells are replaced with 120 μL of freshly diluted test compounds in complete medium containing or not 30% Human serum. The level of HIV-1 replication is determined at days 5 after infection by the presence of viral RT activity in harvested supernatant fluid. The IC50 values for the virus replication are determined by using GRAPHPAD PRISM software.
(§2) The IC50 of the compounds tested in accordance with the HIV replication activity assay MT2 (HIVIIIB) with or without human serum are represented in Table 6.

HIVIIIB [2] = assay: HIV-1 replication in MT2 cell line with 30% human serum (RT activity in supernatant); assay type: cell-based; settings: MT2 cells, day 5 after infection, average if tested more than once, read-out: MT2 (HIVIIIB) with human serum IC50 range
Protocol: as §1, §2

[3] = Human immunodeficiency virus 1, 120 h

Row | Structure (SMILES) | IC50 (HIVIIIB [1]; [3]) | IC50 (HIVIIIB [2]; [3]) | IC50 (HIVIIIB [1]) | IC50 (HIVIIIB [2])
1 | C=C(C)[C@@H]1CC[C@]2(NC(=O)NC)CC[C@]3(C)[C@H](CC[C@@H]4[C@@]5(C)CC[C@H](OC(=O)CC(C)(C)C(=O)O)C(C)(C)[C@@H]5CC[C@]43C)[C@@H]12 [Cpd 11-7, 3β-O-(3′,3′-Dimethylsuccinyl)-17β-[N′-(methyl)ureido]-28-norlup-20(29)-ene] | < 199 nM | < 199 nM |  | 
2 | C=C(C)[C@@H]1CC[C@]2(NC(=O)C(=O)N(C)C)CC[C@]3(C)[C@H](CC[C@@H]4[C@@]5(C)CC[C@H](OC(=O)CC(C)(C)C(=O)O)C(C)(C)[C@@H]5CC[C@]43C)[C@@H]12 [Cpd 13-3, 17β-Dimethylaminooxalyl-amino-3β-O-(3′,3′-dimethylsuccinyl)-28-norlup-20(29)-ene] | < 199 nM | < 199 nM |  | 
3 | C=C(C)[C@@H]1CC[C@]2(NC(=O)C(C)C)CC[C@]3(C)[C@H](CC[C@@H]4[C@@]5(C)CC[C@H](OC(=O)CC(C)(C)C(=O)O)C(C)(C)[C@@H]5CC[C@]43C)[C@@H]12 [Cpd 13-10, 3β-O-(3′,3′-Dimethylsuccinyl)-17β-isobutyrylamino-28-norlup-20(29)-ene] | < 199 nM | < 199 nM |  | 
4 | C=C(C)[C@@H]1CC[C@]2(NC(=O)NC(=O)OC)CC[C@]3(C)[C@H](CC[C@@H]4[C@@]5(C)CC[C@H](OC(=O)CC(C)(C)C(=O)O)C(C)(C)[C@@H]5CC[C@]43C)[C@@H]12 [Cpd 11-1, 3β-O-(3′,3′-Dimethylsuccinyl)-17β-[N′-(methoxycarbonyl)ureido]-28-norlup-20(29)-ene] | < 199 nM | < 199 nM |  | 
5 | C=C(C)[C@@H]1CC[C@]2(NC(=O)C3CC3)CC[C@]3(C)[C@H](CC[C@@H]4[C@@]5(C)CC[C@H](OC(=O)CC(C)(C)C(=O)O)C(C)(C)[C@@H]5CC[C@]43C)[C@@H]12 [Cpd 13-9, 17β-(Cyclopropanecarbonyl-amino)-3β-O-(3′,3′-dimethylsuccinyl)-28-norlup-20(29)-ene] | < 199 nM | < 199 nM |  | 
6 | C=C(C)[C@@H]1CC[C@]2(NS(C)(=O)=O)CC[C@]3(C)[C@H](CC[C@@H]4[C@@]5(C)CC[C@H](OC(=O)CC(C)(C)C(=O)O)C(C)(C)[C@@H]5CC[C@]43C)[C@@H]12 [Cpd 12-1, 3β-O-(3′,3′-Dimethylsuccinyl)-17β-methylsulfonylamino-28-norlup-20(29)-ene] | < 199 nM | < 199 nM |  | 
7 | C=C(C)[C@@H]1CC[C@]2(NC(N)=O)CC[C@]3(C)[C@H](CC[C@@H]4[C@@]5(C)CC[C@H](OC(=O)CC(C)(C)C(=O)O)C(C)(C)[C@@H]5CC[C@]43C)[C@@H]12 [Cpd 11-10, 3β-O-(3′,3′-Dimethylsuccinyl)-17β-ureido-28-norlup-20(29)-ene] | < 199 nM | < 199 nM |  | 
8 | C=C(C)[C@@H]1CC[C@]2(NC(C)=O)CC[C@]3(C)[C@H](CC[C@@H]4[C@@]5(C)CC[C@H](OC(=O)CC(C)(C)C(=O)O)C(C)(C)[C@@H]5CC[C@]43C)[C@@H]12 [Cpd 13-1, 17β-Acetylamino-3β-O-(3′,3′-dimethylsuccinyl)-28-norlup-20(29)-ene] | < 199 nM | < 199 nM |  | 
9 | C=C(C)[C@@H]1CC[C@]2(NC(=O)NC(C)(C)C)CC[C@]3(C)[C@H](CC[C@@H]4[C@@]5(C)CC[C@H](OC(=O)CC(C)(C)C(=O)O)C(C)(C)[C@@H]5CC[C@]43C)[C@@H]12 [Cpd 11-2, 3β-O-(3′,3′-Dimethylsuccinyl)-17β-[N′-(tert-butyl)ureido]-28-norlup-20(29)-ene] | < 199 nM | < 199 nM |  | 
10 | C=C(C)[C@@H]1CC[C@]2(NC(=O)N3CCN(C)CC3)CC[C@]3(C)[C@H](CC[C@@H]4[C@@]5(C)CC[C@H](OC(=O)CC(C)(C)C(=O)O)C(C)(C)[C@@H]5CC[C@]43C)[C@@H]12 [Cpd 11-9, 3β-O-(3′,3′-Dimethylsuccinyl)-17β-[(4-methyl-piperazine-1-carbonyl)-amino]-28-norlup-20(29)-ene] | < 199 nM | < 199 nM |  | 
11 | C=C(C)[C@@H]1CC[C@]2(NC(=O)N3CCOCC3)CC[C@]3(C)[C@H](CC[C@@H]4[C@@]5(C)CC[C@H](OC(=O)CC(C)(C)C(=O)O)C(C)(C)[C@@H]5CC[C@]43C)[C@@H]12 [Cpd 11-8, 3β-O-(3′,3′-Dimethylsuccinyl)-17β-[(morpholine-4-carbonyl)-amino]-28-norlup-20(29)-ene] | < 199 nM | < 199 nM |  | 
12 | CC(=O)NC12CCC(C(C)C)C1C1CCC3C4(C)CCC(OC(=O)CC(C)(C)C(=O)O)C(C)(C)C4CCC3(C)C1(C)CC2 (stereo not drawn) [Cpd 22-1, 3β-O-(3′,3′-Dimethylsuccinyl)-17β-acetylamino-28-norlupane] |  |  | < 199 nM | < 199 nM
